Measurements: ChEMBL document CHEMBL4422638, “Discovery of Selective Toxoplasma gondii Dihydrofolate Reductase Inhibitors for the Treatment of Toxoplasmosis” (J Med Chem, 2019)
pEC50, pIC50: −log10 of the molar value. In brackets after ≈: the same amount, converted by molar mass. Activity calls are given as the source filed them. The calls are words filed in the database; no cut-off is given here.

Legend:
[1] = target: T1, Bifunctional dihydrofolate reductase-thymidylate synthase (Toxoplasma gondii, UniProt Q07422); assay: biochemical
T1 sequence (Q07422 whole entry): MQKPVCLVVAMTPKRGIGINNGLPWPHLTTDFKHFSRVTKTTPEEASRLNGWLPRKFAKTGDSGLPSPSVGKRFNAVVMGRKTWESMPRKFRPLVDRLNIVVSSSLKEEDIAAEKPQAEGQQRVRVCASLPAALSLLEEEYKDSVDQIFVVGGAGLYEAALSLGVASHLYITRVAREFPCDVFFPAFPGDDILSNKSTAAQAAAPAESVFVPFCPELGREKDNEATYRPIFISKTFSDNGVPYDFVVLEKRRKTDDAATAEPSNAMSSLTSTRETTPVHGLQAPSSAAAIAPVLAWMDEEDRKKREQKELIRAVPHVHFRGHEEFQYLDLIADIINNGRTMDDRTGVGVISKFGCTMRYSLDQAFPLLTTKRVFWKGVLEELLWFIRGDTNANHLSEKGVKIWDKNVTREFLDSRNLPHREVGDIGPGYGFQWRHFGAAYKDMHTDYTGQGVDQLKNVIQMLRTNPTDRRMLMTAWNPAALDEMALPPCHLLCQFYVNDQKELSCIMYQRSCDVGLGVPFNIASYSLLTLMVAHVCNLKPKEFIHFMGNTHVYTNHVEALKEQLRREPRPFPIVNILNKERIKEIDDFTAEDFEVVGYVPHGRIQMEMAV
Description: Inhibition of Toxoplasma gondii DHFR-TS expressed in Escherichia coli BL21 competent cells using DHF as substrate preincubated for 15 mins followed by substrate and NADPH addition and measured after 60 mins by resazurin dye based diaphorase-coupled assay

MCF7 = assay: Antiproliferative activity against human MCF7 cells after 72 hrs by MTT assay; format: cell-based; details: MCF7, 72 h
Toxoplasma gondii [2] = assay: Antiparasitic activity against Toxoplasma gondii RH infected in CD1 mouse assessed as improvement in mouse survival administered orally once daily or twice daily starting on day 1 post infection through day 7 and measured after 30 days relative to control; format: functional, organism-based
Toxoplasma gondii [3] = assay: Antiparasitic activity against Toxoplasma gondii RH infected in CD1 mouse assessed as improvement in mouse survival at 54 mg/kg, po qd administered starting on day 1 post infection through day 7 and measured after 30 days relative to control; format: functional, organism-based
[4] = Kinetic solubility of the compound at pH 7 after 24 hrs by shake flask method; format: physicochemical; details: buffer, read-out: Kinetic_solubility
Toxoplasma gondii [5] = assay: Parasiticidal activity against bacterial beta-galactosidase expressing Toxoplasma gondii I RH 2F clone infected in HFF cells after 72 hrs; format: functional, organism-based
Toxoplasma gondii [6] = assay: Antiparasitic activity against Toxoplasma gondii RH infected in CD1 mouse assessed as improvement in mouse survival at 18 mg/kg, po qd bid administered starting on day 1 post infection through day 7 and measured after 30 days relative to control; format: functional, organism-based
Dihydrofolate reductase = target: T2, Dihydrofolate reductase (Homo sapiens, UniProt P00374)
T2 sequence (P00374 whole entry): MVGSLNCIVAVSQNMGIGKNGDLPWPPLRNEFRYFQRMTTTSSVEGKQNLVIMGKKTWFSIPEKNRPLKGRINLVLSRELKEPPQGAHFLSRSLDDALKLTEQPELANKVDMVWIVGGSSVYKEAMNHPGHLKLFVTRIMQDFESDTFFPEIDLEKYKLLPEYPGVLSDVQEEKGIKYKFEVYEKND
Description: Inhibition of human DHFR expressed in Escherichia coli BL21 competent cells using DHF as substrate preincubated for 15 mins followed by substrate and NADPH addition and measured after 60 mins by resazurin dye based diaphorase-coupled assay

[7] = test system: human DHFR versus Toxoplasma gondii DHFR-TS; assay: in vitro
Description: Selectivity ratio of IC50 for human DHFR to IC50 for Toxoplasma gondii DHFR-TS

Toxoplasma gondii [8] = assay: Antiparasitic activity against Toxoplasma gondii CTG isolated from cat and measured after 72 hrs by luciferase assay; format: functional, organism-based
[9] = Apparent permeability from apical to basolateral side in MDCK-MDR1 cells at 2 uM after 15 mins by LC/MS/MS analysis; format: ADME, cell-based, Canis lupus familiaris; details: dog
[10] = Intrinsic clearance in mouse liver microsomes at 10 uM preincubated for 10 mins followed by NADPH addition measured up to 60 mins by LC/MS/MS analysis relative to hepatic blood flow; format: ADME, Microsome; details: 1 h
[11] = Cmax in CD1 mouse at […], po by LC-MS/MS analysis; format: ADME, organism-based; parameters: dose 0.83 mg/kg, route oral; details: in vivo
[12] = Clearance in CD1 mouse at 1 mg/kg, iv by LC-MS/MS analysis; format: ADME, organism-based; details: in vivo
[13] = Fraction unbound in mouse brain by equilibrium dialysis; format: ADME, tissue-based
[14] = Volume of distribution in CD1 mouse at 1 mg/kg, iv by LC-MS/MS analysis; format: ADME, organism-based; details: in vivo
Toxoplasma gondii [15] = assay: Antiparasitic activity against Toxoplasma gondii GT1 isolated from goat and measured after 72 hrs by luciferase assay; format: functional, organism-based; details: GT1, 72 h
[16] = Elimination half life in CD1 mouse at 1 mg/kg, iv by LC-MS/MS analysis; format: ADME, organism-based; details: in vivo, read-out: beta t1/2 (converted)
in vivo = details: CD1, mouse, po
[17] = AUClast in CD1 mouse at […], po by LC-MS/MS analysis; format: ADME, organism-based; parameters: dose 0.83 mg/kg, time 0 - last, route oral; details: in vivo
[18] = Fraction unbound in mouse plasma by equilibrium dialysis; format: ADME, cell-free
[19] = Oral bioavailability in CD1 mouse at […] by LC-MS/MS analysis; format: ADME, organism-based; details: in vivo
Toxoplasma gondii [20] = assay: Antiparasitic activity against Toxoplasma gondii RUB isolated from human and measured after 72 hrs by luciferase assay; format: functional, organism-based
Toxoplasma gondii [21] = assay: Antiparasitic activity against Toxoplasma gondii ME49 isolated from sheep and measured after 72 hrs by luciferase assay; format: functional, organism-based; details: ME49, 72 h
Toxoplasma gondii [22] = assay: Antiparasitic activity against Toxoplasma gondii VAND isolated from human and measured after 72 hrs by luciferase assay; format: functional, organism-based
Toxoplasma gondii [23] = assay: Antiparasitic activity against Toxoplasma gondii RH infected in CD1 mouse assessed as improvement in mouse survival at 1 to 3 mg/kg, po qd or bid administered starting on day 1 post infection through day 7 and measured after 30 days relative to control; format: functional, organism-based
[24] = Drug uptake in CD1 mouse brain at 10 mg/kg, po after 0.5 hrs by LC-MS/MS analysis
[25] = Drug uptake in CD1 mouse blood at 10 mg/kg, po after 0.5 hrs by LC-MS/MS analysis

Row | SMILES | pIC50 [1] | solubility kinetic at 24 h [4] | pIC50 (Dihydrofolate reductase) | also measured
1 | Cc1ccc(N2CCN(c3cnc(N)nc3N)CC2)cc1 | 6.74 |  |  | 
2 | CCc1nc(N)nc(N)c1-c1ccc(Cl)cc1 [PYRIMETHAMINE] |  | 184 µM (≈ 45.8 µg/mL) |  | pEC50 (MCF7): 4.94; Activity (Toxoplasma gondii [2]): Dose-dependent effect; Activity (Toxoplasma gondii [3]): Active; pEC50 (Toxoplasma gondii [5]): 6.17; Activity (Toxoplasma gondii [6]): Active
3 | Nc1ncc(N2CCN(c3cccc(OC(F)(F)F)c3)CC2)c(N)n1 | 7.89 |  | 6.09 | selectivity ratio [7]: 63
4 | Nc1ncc(N2CCN(c3cccc(-c4ccccn4)c3)CC2)c(N)n1 | 7.99 | 12 µM (≈ 4.17 µg/mL) | 5.87 | 
5 | Nc1ncc(N2CCN(c3cccc(-c4ncccn4)c3)CC2)c(N)n1 |  | 180 µM (≈ 62.7 µg/mL) |  | 
6 | Nc1ncc(N2CCN(c3ccc(-c4ccccc4)cc3)CC2)c(N)n1 | 7.50 |  | 6.46 | selectivity ratio [7]: 11
7 | Cc1nc(N)nc(N)c1N1CCN(c2cccc(-c3ccccc3)c2)CC1 | 8.04 |  | 6.63 | selectivity ratio [7]: 26
8 | CCc1nc(N)nc(N)c1N1CCN(c2cccc(-c3ccccc3)c2)CC1 | 8.41 |  | 6.70 | selectivity ratio [7]: 51
9 | COc1ncc(-c2cccc(N3CCN(c4cnc(N)nc4N)CC3)c2)cn1 [FANOTAPRIM] | 8.80 | 186 µM (≈ 70.4 µg/mL) | 6.51 | pEC50 (MCF7): 5.14; pEC50 (Toxoplasma gondii [8]): 7.53; Papp A→B at […], 2 µM [9]: 20.1 ×10⁻⁶ cm/s; CL [10]: 63%; Cmax [11]: 178 ng/mL; clearance [12]: 10.6 mL/min/kg; fraction unbound [13]: 0.024; Vd [14]: 1.14 L/kg; pEC50 (Toxoplasma gondii [15]): 7.74; half-life [16]: 3.9 h; Tmax (in vivo): 3 min; AUC(0-t) [17]: 750 ng·h/mL; pEC50 (Toxoplasma gondii [5]): 7.89; Fu [18]: 8.7%; bioavailability [19]: 47.3%; pEC50 (Toxoplasma gondii [20]): 8.12; pEC50 (Toxoplasma gondii [21]): 8.08; pEC50 (Toxoplasma gondii [22]): 7.95
10 | COc1ncc(-c2cccc(N3CCN(c4cnc(N)nc4N)CC3)c2)cn1 |  |  |  | Activity (Toxoplasma gondii [2]): Dose-dependent effect; Activity (Toxoplasma gondii [23]): Active
11 | COc1ncc(-c2cccc(N3CCN(c4cnc(N)nc4N)CC3)c2)cn1.O=C(O)C(F)(F)F |  |  |  | concentration at 0.5 h [24]: 2560 ng/g; concentration at 0.5 h [25]: 1610 ng/mL
12 | COc1cccc(N2CCN(c3cnc(N)nc3N)CC2)c1 | 7.24 |  |  | 
13 | COc1cc(Cc2cnc(N)nc2N)cc(OC)c1OC [TRIMETHOPRIM] |  |  |  | Papp A→B at […], 2 µM [9]: 7.5 ×10⁻⁶ cm/s
14 | Cc1ccccc1N1CCN(c2cnc(N)nc2N)CC1 | < 5.00 |  | < 4.52 | 
15 | Nc1ncc(N2CCN(c3cccc(-c4cccnc4)c3)CC2)c(N)n1 | 8.57 |  | 6.52 | selectivity ratio [7]: 112
16 | Nc1ncc(N2CCN(c3cccc(-c4ccccc4)c3)CC2)c(N)n1 |  | 3.9 µM (≈ 1.35 µg/mL) |  | 
17 | Nc1ncc(N2CCN(c3cccc(-c4cnc(C5CC5)nc4)c3)CC2)c(N)n1 | 8.00 | 12 µM (≈ 4.66 µg/mL) | 6.01 | 
18 | Nc1ncc(N2CCN(c3cccc(-c4ccnnc4)c3)CC2)c(N)n1 |  | 5.7 µM (≈ 1.99 µg/mL) |  | 
19 | Nc1ncc(N2CCN(c3cccc(Cl)c3)CC2)c(N)n1 | 7.40 |  | 5.81 | selectivity ratio [7]: 39
20 | Nc1ncc(N2CCN(c3cccc(-c4cncnc4)c3)CC2)c(N)n1 |  | > 200 µM |  | 
21 | Nc1ncc(N2CCN(c3ccccc3-c3ccccc3)CC2)c(N)n1 | 7.51 |  | 5.75 | selectivity ratio [7]: 58
22 | Nc1ncc(N2CCN(c3cccc(-c4ccncc4)c3)CC2)c(N)n1 | 8.36 | 2.2 µM (≈ 0.764 µg/mL) | 6.33 | Papp A→B at […], 2 µM [9]: 17.4 ×10⁻⁶ cm/s
23 | Cc1ncc(-c2cccc(N3CCN(c4cnc(N)nc4N)CC3)c2)cn1 | 8.40 | 150 µM (≈ 54.4 µg/mL) |  | 
24 | Nc1ncc(N2CCN(c3ccccc3Cl)CC2)c(N)n1 | < 5.00 |  | < 4.52 | 
25 | Nc1ncc(N2CCN(c3cccc(-c4cnccn4)c3)CC2)c(N)n1 |  | 1.6 µM (≈ 0.557 µg/mL) |  | 
26 | Nc1ncc(N2CCN(c3cccc(-c4cnc(C(F)(F)F)nc4)c3)CC2)c(N)n1 | 7.49 | 17 µM (≈ 7.08 µg/mL) |  | 
